The test system of experiment [1] is HCT116 human liver cancer cells. Nature of the experiment: Cell viability assay, HCT116. Format: cell-based. As for the experimental part: (§1) CWR22Rv1 prostate cancer cells were treated with N6BAP or the control compound C5 (Ctrl) at 25 μM concentration or vehicle for 24 h. Following trypan blue exclusion, the attached viable vs. de-attached dead cells were counted. […] The bars indicate mean±SD of triplicate wells. In another assay, CWR22Rv1, LNCaP and DU145 cells were treated with N6BAP, the control compound C5 (Ctrl) or vehicle at indicated concentrations. The fraction of alive cells was determined by MTS ([…]) metabolic activity assay (CellTiter 96® AQueous Assay kit). The results are shown in FIGS. 9C, 9D and 9E, respectively.
The procedure of Example 9 was followed, substituting cells of the following solid tumor cell lines for the cells treated in Example 9: A549 human lung cancer cells, CAPAN human pancreatic cancer cells, T47D human breast cancer cells, […], A2058 human melanoma and COS-7 monkey fibroblast cell lines.

A further experiment has as its system Bcl-xL. The experiment is described as follows: Expression of Stat5 target gene Bcl-xL in CWR22Rv1 and LNCaP cells (immunoblot). It counts as cell-based, human. The conditions noted are these: 25 μM over time. As for the experimental part: (§2) Exponentially growing CWR22Rv1 and LNCaP cells were treated with N6BAP or the control compound C5 (Ctrl) for 48 h at concentrations indicated in FIG. 6 and whole cell lysates were immunoblotted with anti-cyclinD1 mAb. Exponentially growing CWR22Rv1 and LNCaP cells were treated with N6BAP or control compound C5 (Ctrl) at 25 μM for the periods of time indicated in FIG. 6, and whole cell lysates were immunoblotted with anti-cyclinD1 mAb or anti-Bcl-X1 pAb. Cell pellets were solubilized in lysis buffer [10 mM Tris-HCl (pH 7.6), 5 mM EDTA, 50 mM sodium chloride, 30 mM sodium pyrophosphate, 50 mM sodium fluoride, 1 mM sodium orthovanadate, 1% Triton X-100, 1 mM phenylmethylsulfonyl fluoride, 5 μg/ml aprotinin, 1 μg/ml pepstatin A, and […]], rotated end-over-end at 4° C. for 60 min, and insoluble material was pelleted at 12,000×g for 30 min at 4° C. The protein concentrations of clarified cell lysates were determined by simplified Bradford method (Bio-Rad Laboratories, Hercules, Calif.). The following primary antibodies were used for Western blotting, at the following concentrations: anti-β-actin pAb (1:4,000; Sigma), anti-cyclin D1 mAb (1:1000, BD Biosciences) and Bcl-xL pAb (1:1000, Cell Signaling, Danvers, Mass.).

In another experiment the target is T1, Stat5a (Homo sapiens, UniProt P42229).
T1 sequence (P42229 1-794): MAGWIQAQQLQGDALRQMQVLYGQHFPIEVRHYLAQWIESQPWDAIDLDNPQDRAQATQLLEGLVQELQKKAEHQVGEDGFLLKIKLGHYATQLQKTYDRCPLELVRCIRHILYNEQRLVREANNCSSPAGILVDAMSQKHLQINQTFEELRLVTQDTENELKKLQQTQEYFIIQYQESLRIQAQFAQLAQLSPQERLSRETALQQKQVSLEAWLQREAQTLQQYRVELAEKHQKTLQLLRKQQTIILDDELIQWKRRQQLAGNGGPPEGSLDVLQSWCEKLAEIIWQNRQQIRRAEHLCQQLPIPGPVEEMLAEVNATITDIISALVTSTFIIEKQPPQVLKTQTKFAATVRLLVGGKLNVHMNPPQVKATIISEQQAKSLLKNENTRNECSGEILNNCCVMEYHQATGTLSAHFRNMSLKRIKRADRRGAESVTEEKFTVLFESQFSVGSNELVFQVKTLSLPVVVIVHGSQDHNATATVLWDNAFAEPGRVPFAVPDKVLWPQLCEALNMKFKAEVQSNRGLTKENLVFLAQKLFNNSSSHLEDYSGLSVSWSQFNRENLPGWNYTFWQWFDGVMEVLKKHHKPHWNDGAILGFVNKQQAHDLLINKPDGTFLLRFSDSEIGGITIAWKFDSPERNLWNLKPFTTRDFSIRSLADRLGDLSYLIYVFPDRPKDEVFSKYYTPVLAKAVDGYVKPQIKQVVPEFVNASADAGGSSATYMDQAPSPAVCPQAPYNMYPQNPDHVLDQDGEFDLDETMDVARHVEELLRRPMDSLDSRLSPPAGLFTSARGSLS
Nature of the experiment: Stat5a translocation to the nucleus in PC3 cells (immunofluorescence). It counts as cell-based. The arrangement: expressed in transfected cells; host or cells: PC-3 (human prostate cancer cell line). The settings on record: 2 hours pretreatment, 10 nmol/L Prl 30 minutes. As to the method:
PC3 cells were infected with Ade-Stat5a and Ade-PrlR at MOI 5 for each adenovirus. Cells were pretreated with N6BAP or vehicle (DMSO) for 2 hours and then stimulated with 10 nmol/L Prl for 30 minutes. Cells were fixed with 100% methanol for 15 min and subsequently permeabilized with 0.1% Triton X-100 in PBS (pH 7.4). After blocking with 2% bovine serum albumin in PBS, cells were incubated with an antibody specific for Stat5a or Stat5b at 4° C. for 2 hours. Cells were then washed with PBS and incubated with FITC-conjugated secondary antibody (Jackson ImmunoResearch) at room temperature for 1 hour. The images were taken by using an inverted fluorescence microscopy (Carl Zeiss). […] It should be noted the drug effect in this study was not due to cell apoptosis induction, as the treatment time was only 2 hours. Treatment of at least 48 hours is required for the compound to induce prostate cancer cell apoptosis.

The next experiment has as its system cyclin D1. Nature of the experiment: Expression of Stat5 target gene cyclin D1 in CWR22Rv1 and LNCaP cells (immunoblot). It counts as cell-based, human. The conditions noted are these: 48 h or 25 μM over time. As for the experimental part: as §2
Another experiment relates to prostate cancer cells. Nature of the experiment: Induction of apoptotic death of prostate cancer cells (summary of FIGS. 9A-9E). Format: cell-based, human. As to the method:
as §1

Each structure is given as a SMILES string.

Take `O=P(O)(O)OC[C@H]1O[C@@H](n2cnc3c(NCc4ccccc4)ncnc32)[C@H](O)[C@@H]1O` [N6BAP, N^6-benzyladenosine-5′-monophosphate]: in experiment [1], the cell viability entry is reported as “did not affect the viability”. The “expression of Bcl-xL” value in the experiment on Bcl-xL is recorded as “down-regulates expression”. Also, the “translocation of Stat5a to the nucleus” value on Stat5a is listed as “blocks translocation of Stat5a to the nucleus”. Moreover, the “expression of cyclin D1” value with cyclin D1 was “down-regulates expression”. The “treatment time required to induce prostate cancer cell apoptosis” value in the experiment on prostate cancer cells was “at least 48 hours”. In the experiment on prostate cancer cells (CWR22Rv1, LNCaP, DU145), the “apoptotic death of prostate cancer cells” value is given as “induces apoptotic death of prostate cancer cells”.

Source of the values: patent US20160038526A1, “TREATMENT OF PROSTATE CANCER” (THOMAS JEFFERSON UNIVERSITY, priority 2012, published 2016).
